From paper PMC12372887, “Mechanism and cellular actions of the potent AMPK inhibitor BAY-3827” (Science Advances, 2025)
Where two headings read alike, the source gives them in different places.

Legend:
[1] = target: T1, AMPKα1β1γ1 (Homo sapiens, UniProt Q13131); assay: Cell-free AMPK kinase assay (SAMS peptide); type: biochemical; settings: 200 μM ATP; 0 to 1 μM compound
T1 construct: made in house; host or cells: HEK293 (transient transfection, anti-FLAG immunoprecipitate)
Procedure: Heterotrimeric human AMPK FLAG- α1β1γ1, FLAG- α2β1γ1, and FLAG- α2β2γ1, as well as human FLAG-CaMKK2 and FLAG-ULK1, were produced in mammalian HEK293 cells as described ([66], [67]). For AMPK expression, the cells were triply transfected at 60% confluency using FuGene HD (Roche Applied Science) and 1 μg of pcDNA3 plasmid expression constructs for AMPK Flag-α1, β1-Myc, β2-Myc, and HA-γ1. For CaMKK2 expression, the cells were transfected with 1 μg of pcDNA3 Flag-CaMKK2 plasmid. For ULK1 expression, the cells were transfected with […] of pcDNA3 FLAG-ULK1 plasmid. After 48 hours, the transfected cells were harvested by rinsing with ice-cold PBS, followed by rapid lysis using 500 μl of lysis buffer. AMPK, CaMKK2, and ULK1 kinase activities were determined by phosphorylation of synthetic peptide substrates: SAMS (HMRSAMSGLHLVKRR), CaMKKtide ([…]), and S108tide. (KLPLTRSHNNFVARRR), respectively. Briefly, recombinant AMPK, CaMKK2, or ULK1 were immunoprecipitated from 10 μg of transfected cultured cell lysate using 10 μl of anti-FLAG M2 agarose beads [50% (v/v)] (Merck MilliporeSigma), washed, and then added to a 25-μl reaction containing assay buffer [50 mM Hepes-NaOH (pH 7.4), 1 mM DTT, and 0.02% (v/v) Brij-35], 200 μM synthetic peptide substrate (SAMS, CaMKKtide, or S108tide), 200 or 20 μM [γ-^32P]-ATP (PerkinElmer), 5 mM MgCl2, in the presence of 0 to 1 μM BAY-3827 or BAY-974. Reactions were performed at 30°C and terminated after 10 min by spotting 15 μl onto phosphocellulose paper. Radioactivity was quantified by liquid scintillation counting. Data visualization and nonlinear regression fitting were performed in GraphPad Prism v10.
(§1) Data points are plotted as means ± SEM. Data were inputted, and all statistical tests were performed using GraphPad Prism, version 10.1.0. One- or two-way analysis of variance (ANOVA) statistical tests were conducted using Tukey’s correction for multiple comparisons; specific test will be stated in the figure legend. Significance was accepted as P < 0.05. N number and statistical details for each experiment are reported in each figure legend. […] To estimate IC50 values, nonlinear regression fitting was conducted using the model (Inhibitor) versus response—variable slope in GraphPad Prism (version 10.1.0) and estimating values reported in nanomolar. To estimate binding affinities (Kd) from performed spectral shift binding assays, data were fitted using a one-site total model [Y = BmaxX/(Kd + X) + NSX + Background] where X is the ligand concentration, Bmax represents the maximum binding, and NS is the slope of the nonlinear regression of Y/X. Values are reported in means ± SEM in micromolar.

[2] = target: T2, nonphosphorylated AMPKα2β2γ1 complex (Homo sapiens, UniProt O43741+P54619+P54646); assay: Spectral shift (Dianthus) binding assay; settings: read-out: dissociation constant (Kd)
T2 construct: For expression of full-length AMPKα2β2γ1, α2β2γ2, and α2β2γ3 complexes; made in house; host or cells: E. coli BL21(DE3)-RIL
T2 sequence (P54646 whole entry): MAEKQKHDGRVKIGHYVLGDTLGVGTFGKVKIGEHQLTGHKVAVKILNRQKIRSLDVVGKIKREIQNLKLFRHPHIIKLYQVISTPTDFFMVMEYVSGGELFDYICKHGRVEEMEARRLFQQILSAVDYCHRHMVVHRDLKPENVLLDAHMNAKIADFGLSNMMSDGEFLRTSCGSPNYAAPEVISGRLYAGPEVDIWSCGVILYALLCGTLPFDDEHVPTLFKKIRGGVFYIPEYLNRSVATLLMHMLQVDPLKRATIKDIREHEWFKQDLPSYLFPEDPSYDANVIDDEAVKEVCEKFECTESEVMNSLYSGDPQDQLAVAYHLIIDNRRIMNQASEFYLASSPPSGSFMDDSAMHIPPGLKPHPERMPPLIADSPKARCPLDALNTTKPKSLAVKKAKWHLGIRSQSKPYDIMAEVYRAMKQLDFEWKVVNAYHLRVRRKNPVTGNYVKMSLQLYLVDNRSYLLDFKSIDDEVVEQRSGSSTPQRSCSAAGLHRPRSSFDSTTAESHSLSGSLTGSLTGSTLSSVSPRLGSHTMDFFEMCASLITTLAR
T2 sequence (O43741 whole entry partner): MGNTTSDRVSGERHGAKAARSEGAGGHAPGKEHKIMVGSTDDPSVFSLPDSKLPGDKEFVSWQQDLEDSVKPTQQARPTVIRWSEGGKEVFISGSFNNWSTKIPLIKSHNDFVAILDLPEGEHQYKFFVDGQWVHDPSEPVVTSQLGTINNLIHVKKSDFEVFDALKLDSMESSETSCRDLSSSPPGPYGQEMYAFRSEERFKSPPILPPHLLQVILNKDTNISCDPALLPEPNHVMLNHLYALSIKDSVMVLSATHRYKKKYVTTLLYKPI
T2 sequence (P54619 whole entry partner): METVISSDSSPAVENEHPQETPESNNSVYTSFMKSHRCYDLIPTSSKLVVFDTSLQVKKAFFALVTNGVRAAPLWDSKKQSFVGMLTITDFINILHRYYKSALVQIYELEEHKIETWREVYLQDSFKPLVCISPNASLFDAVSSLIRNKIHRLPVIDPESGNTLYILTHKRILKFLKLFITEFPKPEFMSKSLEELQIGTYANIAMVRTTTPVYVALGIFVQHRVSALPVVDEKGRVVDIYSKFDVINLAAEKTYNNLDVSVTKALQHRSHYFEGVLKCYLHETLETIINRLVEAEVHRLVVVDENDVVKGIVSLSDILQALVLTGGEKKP
Procedure: (§2) The binding affinity of BAY-3827 to α2KD, AMPK (T172D)-α2KD, or AMPK complexes α2β2γ1 and α2β2γ3 was measured by Dianthus (Nano Temper Technologies). BAY-3827 was diluted from a 100 mM stock in DMSO to 0.5 mM working concentration in the assay buffer (PBS with 0.005% Tween-20) with a final DMSO concentration of 2.5%, which was kept constant throughout the concentration gradient of the compound. For additional experiments, assay buffer containing Hepes 25 mM, NaCl 250 mM, and 0.005% Tween-20 was used to optimize the assay, enhancing signal-to-noise ratios. His-tagged α2KD, T172D-α2KD, or His-tagged AMPK-α2β2γ1 or α2β2γ3 complexes were labeled with His-tag labeling dye (His-Tag Labeling Kit RED-tris-NTA 2nd Generation). The ratio of fluorescence intensities (670/650 nm) over BAY-3827 concentration gradient ranging from 250 μM down to 0.015 μM. The concentration gradient was prepared by 1:1 serial dilution over 16 steps, with a setup of two to three technical replicates for each concentration. The binding experiments were repeated three times, and the mean Kd values of the inhibitor are reported in the appropriate figure alongside ± SEM (micromolar) displaying a representative graph. A concentration of 50 nM of the corresponding protein target was used in each performed assay. The ratio of fluorescence intensities was measured over BAY-3827 concentration gradient in GraphPad Prism using nonlinear regression (one site-total binding). Data quality was assessed by monitoring XYZ scans for each well to detect air bubbles or aggregation where present following the manufacturer’s instructions.
as §1

[3] = target: T3, AMPKα2 kinase domain (α2KD), WT (Homo sapiens, UniProt P54646); assay: Spectral shift (Dianthus) binding assay; settings: read-out: dissociation constant (Kd)
T3 construct: human AMPK-α2 KD (α2KD; residues 6 to 280); made in house; host or cells: E. coli BL21(DE3)-RIL
T3 sequence (P54646 6-280): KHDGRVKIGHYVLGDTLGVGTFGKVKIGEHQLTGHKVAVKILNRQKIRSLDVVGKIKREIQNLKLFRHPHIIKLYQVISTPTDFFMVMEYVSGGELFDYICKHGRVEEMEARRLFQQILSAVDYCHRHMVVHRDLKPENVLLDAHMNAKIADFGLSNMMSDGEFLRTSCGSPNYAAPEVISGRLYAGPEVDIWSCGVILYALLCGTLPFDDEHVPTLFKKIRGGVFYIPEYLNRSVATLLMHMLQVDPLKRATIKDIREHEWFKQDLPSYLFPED
Procedure: as §2, §1

[4] = target: T4, nonphosphorylated AMPKα2β2γ3 complex (Homo sapiens, UniProt O43741+P54646+Q9UGI9); assay: Spectral shift (Dianthus) binding assay; settings: read-out: dissociation constant (Kd)
T4 construct: For expression of full-length AMPKα2β2γ1, α2β2γ2, and α2β2γ3 complexes; made in house; host or cells: E. coli BL21(DE3)-RIL
T4 sequence (P54646 whole entry): as the sequence (P54646 whole entry) above
T4 sequence (O43741 whole entry partner): as the sequence (O43741 whole entry partner) above
T4 sequence (Q9UGI9 whole entry partner): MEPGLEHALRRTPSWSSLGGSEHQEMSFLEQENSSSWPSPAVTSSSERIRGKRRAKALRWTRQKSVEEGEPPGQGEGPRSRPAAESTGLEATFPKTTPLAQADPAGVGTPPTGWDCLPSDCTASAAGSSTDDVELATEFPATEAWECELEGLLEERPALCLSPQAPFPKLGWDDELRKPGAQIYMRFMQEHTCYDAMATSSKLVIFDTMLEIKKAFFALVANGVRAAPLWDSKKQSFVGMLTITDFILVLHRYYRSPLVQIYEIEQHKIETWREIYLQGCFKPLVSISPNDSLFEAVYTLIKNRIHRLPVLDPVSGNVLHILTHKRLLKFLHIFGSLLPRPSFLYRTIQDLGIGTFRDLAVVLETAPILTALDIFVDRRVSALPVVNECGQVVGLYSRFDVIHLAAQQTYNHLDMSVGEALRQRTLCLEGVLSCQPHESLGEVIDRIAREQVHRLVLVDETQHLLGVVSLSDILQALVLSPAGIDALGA
Procedure: as §2, §1

[5] = target: T5, AMPKα2 (T172D)–α2KD (Homo sapiens, UniProt P54646, T172D); assay: Spectral shift (Dianthus) binding assay; settings: read-out: dissociation constant (Kd)
T5 construct: human AMPK-α2 KD (α2KD; residues 6 to 280); made in house; host or cells: E. coli BL21(DE3)-RIL
T5 sequence (P54646 6-280 T172D): as the sequence (P54646 6-280) above, with T167D counted along it
Procedure: as §2, §1

[6] = tested on: AMPKα1α2−/− DKO primary hepatocytes; assay: Lipogenesis assay ([14C]-acetate incorporation into fatty acids); type: cell-based, mouse
Procedure: Mouse hepatocytes were isolated by collagenase perfusion as previously described ([47]). Hepatocytes were seeded in medium Eagle-199 (MEM-199) (#41150, Thermo Fisher Scientific) containing penicillin G (100 U/ml), streptomycin (100 μg/ml), and 10% (v/v) fetal bovine serum (FBS). Hepatocytes were left for attachment (3 to 4 hours) and serum-starved overnight at 37°C with 5% CO2 in MEM-199 supplemented with penicillin G (100 U/ml), streptomycin (100 μg/ml), 10 nM insulin, and 100 nM dexamethasone. […] Cells were then harvested in 0.5 ml of phosphate-buffered saline (PBS), transferred into 1 ml of 40% KOH and 2 ml of methanol followed by 1-hour incubation at 80°C. Lipids were […] by acidifying the samples in 37% HCl and extracted with petroleum ether. Extracts were allowed to evaporate to dryness and then dissolved in Ultima Gold scintillation fluid for determination of [^14C]-acetate incorporation into lipids.

T1 sequence (Q13131 whole entry): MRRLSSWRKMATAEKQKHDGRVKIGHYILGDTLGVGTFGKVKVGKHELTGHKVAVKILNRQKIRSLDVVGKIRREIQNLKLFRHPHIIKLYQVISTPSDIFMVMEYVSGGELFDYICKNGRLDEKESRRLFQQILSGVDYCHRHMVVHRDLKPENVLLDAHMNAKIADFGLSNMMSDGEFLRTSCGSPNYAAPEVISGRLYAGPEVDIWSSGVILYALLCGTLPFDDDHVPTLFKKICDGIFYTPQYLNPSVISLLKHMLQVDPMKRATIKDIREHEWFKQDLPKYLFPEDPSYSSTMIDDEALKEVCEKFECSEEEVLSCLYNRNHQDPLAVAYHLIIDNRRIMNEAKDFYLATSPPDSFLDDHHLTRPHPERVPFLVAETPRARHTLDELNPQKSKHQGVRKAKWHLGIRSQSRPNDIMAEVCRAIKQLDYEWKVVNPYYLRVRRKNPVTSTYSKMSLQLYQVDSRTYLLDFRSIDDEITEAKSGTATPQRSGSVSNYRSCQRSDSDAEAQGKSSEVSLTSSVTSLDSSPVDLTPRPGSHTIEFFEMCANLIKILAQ
T1 sequence (Q9Y478 whole entry partner): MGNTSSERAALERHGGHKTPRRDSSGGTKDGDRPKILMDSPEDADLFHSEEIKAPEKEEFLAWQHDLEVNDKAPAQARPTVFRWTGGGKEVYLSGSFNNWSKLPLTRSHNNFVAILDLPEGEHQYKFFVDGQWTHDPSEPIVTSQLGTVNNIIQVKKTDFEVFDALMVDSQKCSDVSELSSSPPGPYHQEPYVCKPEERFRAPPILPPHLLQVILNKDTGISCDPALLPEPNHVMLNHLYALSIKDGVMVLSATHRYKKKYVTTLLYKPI
T1 sequence (P54619 whole entry partner): as the sequence (P54619 whole entry partner) above

**Q.** CC1=C(C#N)C(c2ccc3c(c2)c(NC(=O)c2ccccc2C)nn3C)C(C#N)=C(C)N1 [BAY-974, N-[5-(3,5-dicyano-2,6-dimethyl-1,4-dihydropyridin-4-yl)-1-methylindazol-3-yl]-2-methylbenzamide] was tested. Which “inhibitory effect on AMPK complex” value [1] did it give?
**A.** no effect

**Q.** With CCc1ccccc1C(=O)Nc1n[nH]c2c(C)c(F)c(C3C(C#N)=C(C)N(C)C(C)=C3C#N)cc12 [BAY-3827, N-[5-(3,5-dicyano-1,2,6-trimethyl-4H-pyridin-4-yl)-6-fluoro-7-methyl-1H-indazol-3-yl]-2-ethylbenzamide] as the compound, how does the Kd [2] read?
**A.** 11.3 ± 5.23 µM

**Q.** And the Kd ([3]; +3 mM DTT)?
**A.** 28.6 ± 12.5 µM

**Q.** What about the Kd ([3]; without DTT) of the same compound?
**A.** 1.23 µM

**Q.** What about the Kd [4] of the same compound?
**A.** 21.8 ± 8.51 µM

**Q.** What about the Kd ([5]; +3 mM DTT) of the same compound?
**A.** 9.01 ± 1.85 µM

**Q.** And the Kd ([5]; - DTT)?
**A.** 8.65 ± 1.38 µM

**Q.** And the effect on lipogenesis [6]?
**A.** no effect
